In ChEMBL document CHEMBL4229332, “Novel multi-target azinesulfonamides of cyclic amine derivatives as potential antipsychotics with pro-social and pro-cognitive effects” (Eur J Med Chem, 2018):
pEC50, pIC50, pKi: −log10 of the molar value.

Columns and labels:
[1] = biological target: T1, 5-hydroxytryptamine receptor 1A (Homo sapiens, UniProt P08908); assay: Partial agonist activity at human 5-HT1AR expressed in CHO-K1 cells assessed as increase in cAMP accumulation by chemiluminescence-based assay; type: functional, cell-based
T1 sequence (P08908 whole entry): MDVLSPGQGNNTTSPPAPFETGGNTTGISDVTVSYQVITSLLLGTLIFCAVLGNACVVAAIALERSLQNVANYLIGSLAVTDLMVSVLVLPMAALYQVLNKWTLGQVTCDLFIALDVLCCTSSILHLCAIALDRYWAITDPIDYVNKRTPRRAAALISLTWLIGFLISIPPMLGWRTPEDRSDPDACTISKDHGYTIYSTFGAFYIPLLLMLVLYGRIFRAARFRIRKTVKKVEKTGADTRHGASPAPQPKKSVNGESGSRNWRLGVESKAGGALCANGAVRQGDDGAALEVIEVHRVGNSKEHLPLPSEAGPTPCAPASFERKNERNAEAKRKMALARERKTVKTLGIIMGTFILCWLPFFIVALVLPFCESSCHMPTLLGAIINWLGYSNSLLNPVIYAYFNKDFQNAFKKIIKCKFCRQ

[2] = biological target: T2, 5-hydroxytryptamine receptor 2A (Homo sapiens, UniProt P28223); assay: Antagonist activity at human 5-HT2AR expressed in HEK293 cells assessed as inhibition of serotonin-induced IP1 accumulation at 10^-6 M by chemiluminescence-based assay; type: functional, cell-based
T2 sequence (P28223 whole entry): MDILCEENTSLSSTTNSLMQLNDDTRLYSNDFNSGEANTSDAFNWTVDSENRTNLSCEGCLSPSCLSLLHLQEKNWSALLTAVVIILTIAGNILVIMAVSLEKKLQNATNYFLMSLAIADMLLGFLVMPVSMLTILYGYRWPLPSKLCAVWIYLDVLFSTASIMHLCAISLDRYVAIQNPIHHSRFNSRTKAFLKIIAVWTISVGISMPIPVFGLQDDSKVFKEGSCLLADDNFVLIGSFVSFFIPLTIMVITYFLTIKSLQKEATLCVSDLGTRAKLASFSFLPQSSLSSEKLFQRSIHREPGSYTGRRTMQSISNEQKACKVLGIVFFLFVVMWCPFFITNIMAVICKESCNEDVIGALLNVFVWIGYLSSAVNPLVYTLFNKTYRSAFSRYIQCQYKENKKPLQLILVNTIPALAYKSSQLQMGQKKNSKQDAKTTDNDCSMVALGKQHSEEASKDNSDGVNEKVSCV

[3] = biological target: D(3) dopamine receptor (Homo sapiens) (UniProt P35462); assay: Antagonist activity at human D3R expressed in CHO-K1 cells assessed as inhibition of […] cAMP accumulation by chemiluminescence-based assay; type: functional, cell-based
[4] = Ratio of drug level in brain to plasma in Wistar rat at 3 mg/kg, ip measured after 30 mins by LC-MS/MS analysis; type: ADME, organism-based; conditions: read-out: BPR
[5] = Ratio of drug level in brain to plasma in Wistar rat at 3 mg/kg, ip measured after 60 mins by LC-MS/MS analysis; type: ADME, organism-based; conditions: read-out: BPR
[6] = biological target: Voltage-gated inwardly rectifying potassium channel KCNH2 (Homo sapiens, UniProt Q12809); assay: Inhibition of human ERG expressed in CHOK1 cells at 10 to 50 uM by whole-cell patch clamp method; type: cell-based
Chain of Voltage-gated inwardly rectifying potassium channel KCNH2 (Q12809 whole entry): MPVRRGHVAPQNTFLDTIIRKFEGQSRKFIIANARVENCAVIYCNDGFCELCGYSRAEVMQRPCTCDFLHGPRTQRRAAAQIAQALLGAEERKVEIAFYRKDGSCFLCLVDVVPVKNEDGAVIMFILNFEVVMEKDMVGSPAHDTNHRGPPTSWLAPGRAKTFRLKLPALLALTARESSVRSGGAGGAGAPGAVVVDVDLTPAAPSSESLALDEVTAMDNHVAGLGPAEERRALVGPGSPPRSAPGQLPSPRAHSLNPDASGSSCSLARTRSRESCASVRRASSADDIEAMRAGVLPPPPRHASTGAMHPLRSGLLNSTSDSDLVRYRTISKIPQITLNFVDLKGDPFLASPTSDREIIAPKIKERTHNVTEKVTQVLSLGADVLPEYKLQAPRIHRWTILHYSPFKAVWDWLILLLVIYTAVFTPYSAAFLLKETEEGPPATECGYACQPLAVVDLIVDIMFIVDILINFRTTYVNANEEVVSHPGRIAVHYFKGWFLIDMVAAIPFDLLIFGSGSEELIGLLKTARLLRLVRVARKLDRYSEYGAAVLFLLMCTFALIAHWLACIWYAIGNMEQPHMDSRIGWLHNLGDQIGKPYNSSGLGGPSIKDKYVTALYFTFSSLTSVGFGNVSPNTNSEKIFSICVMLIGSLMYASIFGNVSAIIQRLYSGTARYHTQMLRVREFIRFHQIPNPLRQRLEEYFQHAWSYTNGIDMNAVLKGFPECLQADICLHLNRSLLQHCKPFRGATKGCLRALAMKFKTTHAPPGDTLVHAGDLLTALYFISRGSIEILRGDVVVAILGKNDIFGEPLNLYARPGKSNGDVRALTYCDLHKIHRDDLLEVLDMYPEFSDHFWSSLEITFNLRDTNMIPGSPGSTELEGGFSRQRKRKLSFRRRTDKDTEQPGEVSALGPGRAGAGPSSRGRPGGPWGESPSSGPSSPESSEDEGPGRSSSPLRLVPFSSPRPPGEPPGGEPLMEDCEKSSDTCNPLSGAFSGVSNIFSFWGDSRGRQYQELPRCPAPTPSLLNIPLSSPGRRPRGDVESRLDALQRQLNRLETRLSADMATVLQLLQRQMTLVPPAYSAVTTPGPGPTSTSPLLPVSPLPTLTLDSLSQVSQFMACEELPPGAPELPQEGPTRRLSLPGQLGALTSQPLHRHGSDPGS

[7] = biological target: T2, 5-hydroxytryptamine receptor 2A; assay: Displacement of [3H]ketanserin from human recombinant 5-HT2A receptor after 60 mins by scintillation counting analysis
[8] = tested on: Cavia porcellus; assay: Cardiotoxicity in guinea pig assessed as effect on QT interval time at 5 mg/kg, ip measured after 30 mins by ECG analysis (reference value: 127.6 to 131.2 milliseconds); type: toxicity, organism-based; conditions: in vivo, 0.5 h
[9] = tested on: Cavia porcellus; assay: Cardiotoxicity in guinea pig assessed as effect on QT interval time at 5 mg/kg, ip measured after 60 mins by ECG analysis (reference value: 127.6 to 131.2 milliseconds); type: toxicity, organism-based; conditions: in vivo, 1 h
[10] = tested on: Cavia porcellus; assay: Cardiotoxicity in guinea pig assessed as effect on PR interval time at 5 mg/kg, ip measured after 80 mins by ECG analysis (reference value: 58.8 to 63.8 milliseconds); type: toxicity, organism-based; conditions: in vivo
[11] = tested on: Cavia porcellus; assay: Cardiotoxicity in guinea pig assessed as effect on QRS interval time at 5 mg/kg, ip measured after 60 mins by ECG analysis (reference value: 26.2 to 31.6 milliseconds); type: toxicity, organism-based; conditions: in vivo, 1 h
[12] = tested on: Cavia porcellus; assay: Cardiotoxicity in guinea pig assessed as effect on QRS interval time at 5 mg/kg, ip measured after 80 mins by ECG analysis (reference value: 26.2 to 31.6 milliseconds); type: toxicity, organism-based; conditions: in vivo
[13] = tested on: Cavia porcellus; assay: Cardiotoxicity in guinea pig assessed as effect on RR interval time at 5 mg/kg, ip measured after 40 mins by ECG analysis (reference value: 208.4 to 238.4 milliseconds); type: toxicity, organism-based; conditions: in vivo
[14] = tested on: Cavia porcellus; assay: Cardiotoxicity in guinea pig assessed as effect on RR interval time at 5 mg/kg, ip measured after 70 mins by ECG analysis (reference value: 208.4 to 238.4 milliseconds); type: toxicity, organism-based; conditions: in vivo
[15] = tested on: Cavia porcellus; assay: Cardiotoxicity in guinea pig assessed as effect on QTc interval time at 5 mg/kg, ip measured after 70 mins by ECG analysis (reference value: […] to […] milliseconds); type: toxicity, organism-based; conditions: in vivo
[16] = tested on: Cavia porcellus; assay: Cardiotoxicity in guinea pig assessed as effect on QTc interval time at 5 mg/kg, ip measured after 80 mins by ECG analysis (reference value: […] to […] milliseconds); type: toxicity, organism-based; conditions: in vivo
[17] = biological target: Cytochrome P450 1A2 (Homo sapiens, UniProt P05177); assay: Inhibition of human supersome CYP1A2 using caffeine as substrate assessed as caffeine 3-N-demethylation after 30 mins by HPLC-UV detection; type: ADME
Chain of Cytochrome P450 1A2 (P05177 whole entry): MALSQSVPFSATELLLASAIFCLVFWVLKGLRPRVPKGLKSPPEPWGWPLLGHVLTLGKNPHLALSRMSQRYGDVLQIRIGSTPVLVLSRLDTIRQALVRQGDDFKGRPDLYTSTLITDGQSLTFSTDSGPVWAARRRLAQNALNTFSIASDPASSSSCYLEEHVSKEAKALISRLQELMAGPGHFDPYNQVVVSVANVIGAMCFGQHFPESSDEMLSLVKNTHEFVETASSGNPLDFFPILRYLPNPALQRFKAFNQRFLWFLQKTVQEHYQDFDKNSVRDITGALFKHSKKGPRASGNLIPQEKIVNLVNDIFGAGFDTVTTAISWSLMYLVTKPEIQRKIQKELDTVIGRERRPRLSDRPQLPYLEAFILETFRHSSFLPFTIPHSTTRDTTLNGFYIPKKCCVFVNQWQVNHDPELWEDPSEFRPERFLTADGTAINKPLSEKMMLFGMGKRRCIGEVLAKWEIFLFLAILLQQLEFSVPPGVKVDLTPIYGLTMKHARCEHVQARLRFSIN

[18] = biological target: Histamine H1 receptor (Homo sapiens) (UniProt P35367); assay: Displacement of [3H]-pyrilamine from human histamine H1 receptor expressed in HEK293 cells at 10^-6 M after 60 mins by scintillation counting method relative to control; type: cell-based
Chain of Histamine H1 receptor (Homo sapiens) (P35367 whole entry): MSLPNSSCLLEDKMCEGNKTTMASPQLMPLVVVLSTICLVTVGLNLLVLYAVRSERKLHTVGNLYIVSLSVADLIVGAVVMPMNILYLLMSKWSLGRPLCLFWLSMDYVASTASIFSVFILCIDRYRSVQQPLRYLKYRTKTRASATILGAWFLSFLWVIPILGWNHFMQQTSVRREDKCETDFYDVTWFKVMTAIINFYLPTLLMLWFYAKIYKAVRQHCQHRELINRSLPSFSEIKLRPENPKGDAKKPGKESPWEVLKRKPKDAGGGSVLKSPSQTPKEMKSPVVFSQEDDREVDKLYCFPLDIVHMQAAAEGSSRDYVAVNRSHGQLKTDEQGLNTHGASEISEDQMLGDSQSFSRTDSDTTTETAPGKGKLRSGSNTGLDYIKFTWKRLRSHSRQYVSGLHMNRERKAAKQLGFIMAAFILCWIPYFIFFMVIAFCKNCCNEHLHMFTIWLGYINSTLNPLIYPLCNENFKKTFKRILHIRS

[19] = biological target: Muscarinic acetylcholine receptor M1 (Homo sapiens) (UniProt P11229); assay: Displacement of [3H]-pirenzepine from human muscarinic acetylcholine M1 receptor expressed in CHO cells at 10^-6 M after 60 mins by scintillation counting method relative to control; type: cell-based
Chain of Muscarinic acetylcholine receptor M1 (Homo sapiens) (P11229 whole entry): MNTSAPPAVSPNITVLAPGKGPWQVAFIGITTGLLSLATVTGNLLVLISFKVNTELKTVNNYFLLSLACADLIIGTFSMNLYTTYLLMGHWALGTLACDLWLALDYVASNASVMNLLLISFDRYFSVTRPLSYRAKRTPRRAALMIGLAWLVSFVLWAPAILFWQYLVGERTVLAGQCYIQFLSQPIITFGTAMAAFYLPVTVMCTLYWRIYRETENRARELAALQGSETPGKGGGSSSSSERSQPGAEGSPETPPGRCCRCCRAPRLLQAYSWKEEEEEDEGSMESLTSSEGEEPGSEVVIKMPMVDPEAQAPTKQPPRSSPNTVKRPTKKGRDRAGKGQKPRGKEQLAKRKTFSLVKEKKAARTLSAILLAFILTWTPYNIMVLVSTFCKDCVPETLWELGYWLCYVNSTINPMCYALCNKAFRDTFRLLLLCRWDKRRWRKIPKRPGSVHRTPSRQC

[20] = biological target: T3, 5-hydroxytryptamine receptor 1A (Homo sapiens) (UniProt P08908); assay: Displacement of [3H]-WAY100635 from recombinant full-length human 5-HT1AR expressed in CHO cells at 10^-6 M after 120 mins by scintillation counting method relative to control; type: cell-based
T3 sequence (whole entry): T1 sequence (P08908 whole entry)

[21] = biological target: 5-hydroxytryptamine receptor 1D (Rattus norvegicus) (UniProt P28565); assay: Displacement of [3H]-serotonin from rat 5-HT1DR expressed in CHO cells at 10^-6 M after 60 mins by scintillation counting analysis relative to control; type: cell-based
Chain of 5-hydroxytryptamine receptor 1D (Rattus norvegicus) (P28565 whole entry): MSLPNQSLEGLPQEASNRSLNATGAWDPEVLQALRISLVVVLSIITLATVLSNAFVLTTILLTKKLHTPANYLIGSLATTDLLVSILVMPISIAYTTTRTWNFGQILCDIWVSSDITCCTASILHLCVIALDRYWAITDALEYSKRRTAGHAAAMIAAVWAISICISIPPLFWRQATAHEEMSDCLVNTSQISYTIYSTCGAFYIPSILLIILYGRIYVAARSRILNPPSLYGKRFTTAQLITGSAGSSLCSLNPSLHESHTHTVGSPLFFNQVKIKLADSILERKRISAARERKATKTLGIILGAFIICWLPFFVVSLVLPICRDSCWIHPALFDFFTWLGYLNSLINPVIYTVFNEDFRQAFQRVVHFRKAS

[22] = biological target: 5-hydroxytryptamine receptor 2C (Homo sapiens) (UniProt P28335); assay: Displacement of [3H]mesulergine from human 5-HT2C receptor expressed in CHO cells at 10^-6 M after 120 mins by scintillation counting analysis relative to control; type: cell-based
Chain of 5-hydroxytryptamine receptor 2C (Homo sapiens) (P28335 whole entry): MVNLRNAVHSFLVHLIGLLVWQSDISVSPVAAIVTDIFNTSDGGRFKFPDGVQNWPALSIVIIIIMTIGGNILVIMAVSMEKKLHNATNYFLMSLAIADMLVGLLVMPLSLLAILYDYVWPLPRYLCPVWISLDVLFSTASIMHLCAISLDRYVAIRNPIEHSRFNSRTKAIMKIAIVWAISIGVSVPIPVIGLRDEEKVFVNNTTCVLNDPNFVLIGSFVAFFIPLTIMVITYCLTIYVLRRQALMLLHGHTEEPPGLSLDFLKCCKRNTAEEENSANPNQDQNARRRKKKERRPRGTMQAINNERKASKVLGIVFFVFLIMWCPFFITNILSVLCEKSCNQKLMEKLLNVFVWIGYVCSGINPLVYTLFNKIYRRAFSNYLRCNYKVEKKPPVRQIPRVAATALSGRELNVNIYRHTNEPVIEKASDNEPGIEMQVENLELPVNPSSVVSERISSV

[23] = biological target: T4, 5-hydroxytryptamine receptor 7 (Homo sapiens, UniProt P34969); assay: Displacement of [3H]LSD from human recombinant 5-HT7 receptor at 10^-6 M after 120 mins by scintillation counting analysis relative to control
T4 sequence (P34969 whole entry): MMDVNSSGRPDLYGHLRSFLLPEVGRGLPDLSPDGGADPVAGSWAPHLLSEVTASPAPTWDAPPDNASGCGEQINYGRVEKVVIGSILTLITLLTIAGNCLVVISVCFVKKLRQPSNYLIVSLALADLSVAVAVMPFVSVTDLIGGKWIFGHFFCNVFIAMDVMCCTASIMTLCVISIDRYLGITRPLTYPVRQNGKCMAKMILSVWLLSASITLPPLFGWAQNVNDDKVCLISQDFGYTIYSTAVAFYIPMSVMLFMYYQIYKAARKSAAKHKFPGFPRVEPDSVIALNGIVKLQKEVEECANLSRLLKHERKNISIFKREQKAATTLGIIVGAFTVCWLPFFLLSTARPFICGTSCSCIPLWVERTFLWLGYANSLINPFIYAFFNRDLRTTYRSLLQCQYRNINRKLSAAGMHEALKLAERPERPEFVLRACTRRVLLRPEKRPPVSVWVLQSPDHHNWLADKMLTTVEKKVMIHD

[24] = biological target: 5-hydroxytryptamine receptor 2B (Homo sapiens) (UniProt P41595); assay: Agonist activity at human 5-HT2BR expressed in CHO cells assessed as induction of IP1 accumulation at 10^-6 M after 30 mins by HTRF method; type: functional, cell-based
Chain of 5-hydroxytryptamine receptor 2B (Homo sapiens) (P41595 whole entry): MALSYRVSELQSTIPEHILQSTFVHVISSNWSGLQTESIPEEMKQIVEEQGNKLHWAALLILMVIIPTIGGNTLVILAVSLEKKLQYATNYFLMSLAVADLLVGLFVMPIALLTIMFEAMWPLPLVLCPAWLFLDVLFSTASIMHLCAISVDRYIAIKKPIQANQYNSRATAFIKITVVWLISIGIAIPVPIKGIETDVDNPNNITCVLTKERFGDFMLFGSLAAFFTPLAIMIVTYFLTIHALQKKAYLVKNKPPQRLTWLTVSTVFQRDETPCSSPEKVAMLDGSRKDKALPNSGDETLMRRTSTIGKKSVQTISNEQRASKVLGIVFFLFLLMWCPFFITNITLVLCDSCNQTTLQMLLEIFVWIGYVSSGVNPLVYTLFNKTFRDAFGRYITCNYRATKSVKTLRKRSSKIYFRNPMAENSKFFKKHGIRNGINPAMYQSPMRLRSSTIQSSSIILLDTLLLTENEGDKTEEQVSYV

[25] = species on record: Rattus norvegicus; assay: animal or person; conditions: Sprague-Dawley, ip, read-out: MED
Description: Reversal of PCP-induced cognitive impairment in ip dosed Sprague-Dawley rat assessed as reduction in time spent exploring novel object over familiar object pretreated for 60 mins followed by PCP addition by novel object recognition assay

[26] = biological target: T2, 5-hydroxytryptamine receptor 2A; assay: Antagonist activity at human 5-HT2AR expressed in HEK293 cells assessed as inhibition of serotonin-induced calcium flux after 30 mins by HTRF method; type: functional, cell-based
[27] = biological target: T3, 5-hydroxytryptamine receptor 1A (Homo sapiens); assay: Antagonist activity at human 5-HT1AR expressed in mouse BA/F3 cells assessed as inhibition of serotonin-induced calcium flux by fluorimetric method; type: functional, cell-based
[28] = biological target: T4, 5-hydroxytryptamine receptor 7; assay: Antagonist activity at human 5-HT7R expressed in CHO-K1 cells assessed as inhibition of serotonin-induced cAMP accumulation after 30 mins by chemiluminescence-based assay; type: functional, cell-based
[29] = tested on: Cavia porcellus; assay: Cardiotoxicity in guinea pig assessed as QT prolongation at 10 mg/kg, ip; type: toxicity, organism-based; conditions: in vivo

Row | Compound | Kp at 0.5 h [4] | Kp at 1 h [5] | inhibition (INH) [6] | Time [8] [ms] | Time [9] [ms] | Time [10] [ms] | Time [11] [ms] | Time [12] [ms] | Time [13] [ms] | Time [14] [ms] | Time [15] [ms] | Time [16] [ms] | pIC50 [17] | minimal effective dose [25] [mg/kg] | further results
1 | O=S(=O)(c1cncc2ccccc12)N1CCC[C@H]1CCN1CCN(c2cccc3sccc23)CC1 | 2.44 | 2.13 | Not Active | 126.8 | 124.6 | 63.8 | 30.4 | 32 | 227.2 | 214.8 | 265.6 | 268 | < 4.00 | 1 | pEC50 [1]: 7.55; inhibition [2]: 100%; Kb [3]: 92 nM; pKi [7]: 8.05; inhibition [18]: 96%; inhibition [19]: 6%; inhibition [20]: 100%; inhibition [21]: 95%; inhibition [22]: 80%; inhibition [23]: 100%; inhibition [24]: 14%
2 | O=S(=O)(c1cncc2ccccc12)N1CCC[C@H]1CCN1CCN(c2nsc3ccccc23)CC1 | 1.33 | 0.96 | Active | 128.8 | 125.8 | 61.8 | 27.2 | 26 | 211 | 211.4 | 274.6 | 273.4 | < 4.00 | 1 | Kb [26]: 2 nM; Kb [27]: 11 nM; Kb [28]: 2.5 nM; Activity [29]: Non-Toxic; Kb [24]: 3 nM
